This experiment deals with P388 leukemia ip, CD2F1 mice, survival T/C. As to the kind of experiment: NCI In Vivo Anticancer Drug Screen. Data for tumor model P388 Leukemia (intraperitoneal) in CD2F1 (CDF1) mice. Conditions: endpoint: median survival time, higher = longer survival. Summed up: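 Mice carrying the transplanted tumor received test compound or vehicle. Survival was recorded in each group, and the value is the treated-group measurement divided by that of the vehicle-treated control group.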

[1] abbreviates: dose: 60.0 mg/kg/injection, schedule: Q01DX005 (ip), vehicle: saline.
[2] abbreviates: dose: 120.0 mg/kg/injection, schedule: Q01DX005 (ip), vehicle: saline.
The mark [3] stands for this setting: dose: 240.0 mg/kg/injection, schedule: Q01DX005 (ip), vehicle: saline.
Where [4] appears, read: dose: 100.0 mg/kg/injection, schedule: Q01DX001 (ip), vehicle: saline with Tween-80.
Where [5] appears, read: dose: 60.0 mg/kg/injection, schedule: Q01DX005 (ip), vehicle: saline with Tween-80.
The mark [6] stands for this setting: dose: 120.0 mg/kg/injection, schedule: Q01DX005 (ip), vehicle: saline with Tween-80.
[7] abbreviates: dose: 240.0 mg/kg/injection, schedule: Q01DX005 (ip), vehicle: saline with Tween-80.
[8] abbreviates: dose: 50.0 mg/kg/injection, schedule: Q01DX009 (ip), vehicle: saline with Tween-80.
Where [9] appears, read: dose: 100.0 mg/kg/injection, schedule: Q01DX009 (ip), vehicle: saline with Tween-80.
[10] abbreviates: dose: 200.0 mg/kg/injection, schedule: Q01DX009 (ip), vehicle: saline with Tween-80.
[11] abbreviates: dose: 3.12 mg/kg/injection, schedule: Q01DX009 (ip), vehicle: saline.
Where [12] appears, read: dose: 6.25 mg/kg/injection, schedule: Q01DX009 (ip), vehicle: saline with Tween-80.
The mark [13] stands for this setting: dose: 6.25 mg/kg/injection, schedule: Q01DX009 (ip), vehicle: saline.
Where [14] appears, read: dose: 12.5 mg/kg/injection, schedule: Q01DX009 (ip), vehicle: saline.
Where [15] appears, read: dose: 25.0 mg/kg/injection, schedule: Q01DX009 (ip), vehicle: saline with Tween-80.

Where “and” joins values, the source holds several entries; their conditions need not be identical. Equal values may be shown once. Toxic doses and inconclusive results are not listed.

Consider `CC1(C)NC(=O)N(CN2CCOCC2)C1=O`, for which the T/C runs as follows: (dose: 30.0 mg/kg/injection, schedule: Q01DX005 (ip), vehicle: saline) 104 % of control; under setting [1], 109 % of control and 111 % of control and 93 % of control; under setting [2], 106 % of control and 119 % of control and 123 % of control; under setting [3], 106 % of control and 116 % of control and 120 % of control.

For `N[C@H]1CCC[C@@H](O)C1O` (some centres undefined), the T/C was 103 % of control under setting [1], 100 % of control under setting [2] and 109 % of control under setting [3].

Take `c1ccc(C(Sc2c[nH]c3ccccc23)(c2ccccc2)c2ccccc2)cc1` (tested in a mixture with another compound): the T/C under setting [4] is 100 % of control; the T/C (dose: 200.0 mg/kg/injection, schedule: Q01DX001 (ip), vehicle: saline with Tween-80) is 90 % of control; the T/C (dose: 400.0 mg/kg/injection, schedule: Q01DX001 (ip), vehicle: saline with Tween-80) was 92 % of control.

Consider `CS(=O)(=O)N1CCCN(S(C)(=O)=O)COC1`, for which the T/C is, setting by setting: under setting [5], 99 % of control; under setting [6], 101 % of control; under setting [7], 101 % of control.

Take `Nc1ccc2c(c1)C(O)c1cccc(C(=O)O)c1-2` (centres undefined): the T/C runs as follows: under setting [5], 96 % of control; under setting [6], 101 % of control; under setting [7], 94 % of control.

`NS(=O)(=O)c1cc([N+](=O)[O-])ccc1Cl`: the T/C was 100 % of control under setting [8], 100 % of control under setting [9] and 94 % of control under setting [10].

With `CC(C)(C)NC/C(C#N)=C\c1ccccc1`, the T/C is 102 % of control (dose: 25.0 mg/kg/injection, schedule: Q01DX001 (ip), vehicle: saline with Tween-80); 99 % of control (dose: 50.0 mg/kg/injection, schedule: Q01DX001 (ip), vehicle: saline with Tween-80); 97 % of control under setting [4].

With `CC1(O)C2CCCCC2C2CCCCC2C1(C)O` (centres undefined), the T/C runs as follows: (dose: 50.0 mg/kg/injection, schedule: Q01DX005 (ip), vehicle: saline with Tween-80) 101 % of control; (dose: 100.0 mg/kg/injection, schedule: Q01DX005 (ip), vehicle: saline with Tween-80) 100 % of control; (dose: 200.0 mg/kg/injection, schedule: Q01DX005 (ip), vehicle: saline with Tween-80) 103 % of control.

For the compound `[CH3][Sn]([CH3])([Cl])[CH2]CC[CH2][Sn]([CH3])([Cl])[Cl]`, the T/C (dose: 0.78 mg/kg/injection, schedule: Q01DX009 (ip), vehicle: saline) is 99 % of control; the T/C (dose: 1.56 mg/kg/injection, schedule: Q01DX009 (ip), vehicle: saline) is 89 % of control; the T/C under setting [11] is 89 % of control.

On to `CCCOC1=C(N2CC2)C(=O)C(OCCC)=C(N2CC2)C1=O`, for which the T/C (dose: 0.89 mg/kg/injection, schedule: Q01DX009 (ip), vehicle: saline with Tween-80) is 106 % of control; the T/C (dose: 3.0 mg/kg/injection, schedule: Q01DX009 (ip), vehicle: saline with Tween-80) is 179 % of control; the T/C (dose: 4.0 mg/kg/injection, schedule: Q01DX009 (ip), vehicle: saline with Tween-80) is 181 % of control; the T/C (dose: 6.0 mg/kg/injection, schedule: Q01DX009 (ip), vehicle: saline with Tween-80) was 186 % of control; the T/C under setting [12] is 190 % of control; the T/C (dose: 9.0 mg/kg/injection, schedule: Q01DX009 (ip), vehicle: saline with Tween-80) is 109 % of control.

As to `c1cc(-n2nnc3cnccc32)ccn1`, the T/C was 91 % of control under setting [11]; 100 % of control under setting [13]; 109 % of control (dose: 6.25 mg/kg/injection, schedule: Q04DX003 (ip), vehicle: saline); 98 % of control under setting [14]; 104 % of control (dose: 12.5 mg/kg/injection, schedule: Q04DX003 (ip), vehicle: saline); 109 % of control (dose: 25.0 mg/kg/injection, schedule: Q01DX009 (ip), vehicle: suspension in saline). Under “dose: 25.0 mg/kg/injection, schedule: Q04DX003 (ip), vehicle: saline”, the T/C was 100 % of control.

Take `CN(C)CCC(=O)c1ccc([N+](=O)[O-])cc1`: the T/C is, setting by setting: under setting [15], 94 % of control; under setting [8], 113 % of control; under setting [9], 108 % of control; under setting [10], 106 % of control.

Turning to `O=C1N[C@@H]2C(=C[C@H](O)[C@@H](O)[C@H]2O)c2cc3c(c(O)c21)OCO3`, the T/C is 110 % of control (dose: 0.62 mg/kg/injection, schedule: Q01DX009 (ip), vehicle: saline with Tween-80); 100 % of control (dose: 5.0 mg/kg/injection, schedule: Q01DX009 (ip), vehicle: saline with Tween-80); 87 % of control (dose: 10.0 mg/kg/injection, schedule: Q01DX009 (ip), vehicle: saline with Tween-80).

As for `CNCCc1ccc2cc(OC)c(OC)cc2c1`, the T/C by setting is: under setting [15], 90 % of control; under setting [8], 100 % of control; under setting [9], 100 % of control.

For `N#CC(NCc1ccccc1)c1ccccc1` (centres undefined), the T/C by setting is: under setting [5], 99 % of control; under setting [6], 100 % of control.

Consider `O=c1oc(-c2ccccc2)nc2cc(Cl)ccc12`, for which the T/C reads like this: (dose: 100.0 mg/kg/injection, schedule: Q04DX003 (ip), vehicle: Klucel (hydroxypropylcellulose) (HPC)) 100 % of control; (dose: 200.0 mg/kg/injection, schedule: Q04DX003 (ip), vehicle: Klucel (hydroxypropylcellulose) (HPC)) 90 % of control; (dose: 400.0 mg/kg/injection, schedule: Q04DX003 (ip), vehicle: Klucel (hydroxypropylcellulose) (HPC)) 107 % of control.

With `C/C(=C\C(=N\N=C(N)N)c1ccc(Cl)cc1)c1ccc(Cl)cc1`, the T/C is 118 % of control under setting [12] and 98 % of control (dose: 12.5 mg/kg/injection, schedule: Q01DX009 (ip), vehicle: saline with Tween-80).

As for `COc1cc2c(cc1OC)C1C(CO)c3ccc(OC)c(OC)c3CN1CC2` (centres undefined), the T/C is, setting by setting: (dose: 50.0 mg/kg/injection, schedule: Q04DX003 (ip), vehicle: distilled water + Tween-80) 96 % of control; (dose: 100.0 mg/kg/injection, schedule: Q04DX003 (ip), vehicle: distilled water + Tween-80) 93 % of control; (dose: 200.0 mg/kg/injection, schedule: Q04DX003 (ip), vehicle: distilled water + Tween-80) 87 % of control; (dose: 400.0 mg/kg/injection, schedule: Q04DX003 (ip), vehicle: distilled water + Tween-80) 91 % of control.

Take `O=S(=O)(O)SCCNCCCCC1CCCCC1`: the T/C (dose: 3.75 mg/kg/injection, schedule: Q01DX005 (ip), vehicle: saline with Tween-80) was 99 % of control; the T/C (dose: 7.5 mg/kg/injection, schedule: Q01DX005 (ip), vehicle: saline with Tween-80) was 90 % of control; the T/C (dose: 15.0 mg/kg/injection, schedule: Q01DX005 (ip), vehicle: saline with Tween-80) is 101 % of control and 104 % of control; the T/C (dose: 30.0 mg/kg/injection, schedule: Q01DX005 (ip), vehicle: saline with Tween-80) was 111 % of control; the T/C under setting [5] was 120 % of control.

Consider `O=[N+]([O-])C(CO)C(CO)[N+](=O)[O-]` (centres undefined), for which the T/C is, setting by setting: (dose: 100.0 mg/kg/injection, schedule: Q01DX009 (ip), vehicle: Klucel (hydroxypropylcellulose) (HPC)) 110 % of control; (dose: 100.0 mg/kg/injection, schedule: Q01DX009 (ip), vehicle: suspension in saline) 103 % of control; (dose: 200.0 mg/kg/injection, schedule: Q01DX009 (ip), vehicle: Klucel (hydroxypropylcellulose) (HPC)) 108 % of control; (dose: 200.0 mg/kg/injection, schedule: Q01DX009 (ip), vehicle: suspension in saline) 100 % of control; (dose: 400.0 mg/kg/injection, schedule: Q01DX009 (ip), vehicle: Klucel (hydroxypropylcellulose) (HPC)) 111 % of control; (dose: 400.0 mg/kg/injection, schedule: Q01DX009 (ip), vehicle: suspension in saline) 109 % of control.

Consider `CCC/C(C)=N/NC(=S)SC`, for which the T/C was 100 % of control under setting [13]; 98 % of control under setting [14]; 98 % of control (dose: 25.0 mg/kg/injection, schedule: Q01DX009 (ip), vehicle: saline).

In the case of `CCOc1ccc(Nc2nc(C(Cl)(Cl)Cl)cc(C(Cl)(Cl)Cl)n2)cc1CN(CC)CC`, the T/C by setting is: (dose: 6.25 mg/kg/injection, schedule: Q01DX009 (ip), vehicle: saline sonified) 100 % of control; (dose: 12.5 mg/kg/injection, schedule: Q01DX009 (ip), vehicle: saline sonified) 100 % of control; (dose: 25.0 mg/kg/injection, schedule: Q01DX009 (ip), vehicle: saline sonified) 100 % of control.
